Patent US20110262490A1, “POLYMER-AGENT CONJUGATES, PARTICLES, COMPOSITIONS, AND RELATED METHODS OF USE” (priority 2009, published 2011)
Several values for one entry are separate records, joined by “and”; a condition that tells them apart may be missing. Identical values can stand only once.

Assays:
murine melanoma tumor = experiment: Efficacy and survival in aggressive murine melanoma model at MTD (Example 92); type: in vivo, mouse; conditions: every other week dosing at MTD
Experimental: Thus, the sustained release properties of a particle according to exemplary particle 1 supports less frequent dosing of patients. Methods: Tumor-bearing mice were injected with a particle according to exemplary particle 1 or docetaxel at their respective MTD. See, for example, FIGS. 6a and 6b.

B16.F10 tumor = experiment: Efficacy and tolerability in mouse melanoma model B16.F10 (Example 61)
Experimental: Briefly, ATP and oxygen in viable cells reduce luciferin to oxyluciferin in the presence of luciferase to produce energy in the form of light. B16.F10 cells were grown in culture to 85-90% confluency in MEM-alpha medium supplemented with fetal bovine serum (FBS) and 1% penicillin/streptomycin. Cells were removed from the flask using 0.05% trypsin (passage=4), re-suspended in PBS (density=10×10^6 cells/mL) and were implanted subcutaneously (1×10^6 cells in 100 μL PBS/mouse) into the right flank of male C57BL/6 mice on day 1.
The treatments were administered IV into the tail vein at a dose volume of 10 ml/kg, beginning on post-implantation day 5, when the mean tumor volume was ca. 60 mm^3 Animals were monitored for any morbidity and adverse effects three times a week. In addition, body weight and tumor volume were also measured three times a week.
Tumor volume was calculated with (width×width×length)/2 mm^3 formula. Efficacy was determined by tumor growth inhibition (TGI), tumor growth delay (TGD) and survival. Tumor growth inhibition (TGI) is represented as % and calculated as (1−(treated tumor volume/control tumor volume))×100 when the control group mean tumor volume reached ≧3000 mm^3 Tumor growth delay (TGD) is calculated by subtracting the day when the vehicle treated group reached the maximum tumor size 3000 mm^3 from the day when the treatment group tumor size reached 3000 mm^3. The criterion at which a mouse was removed from the study was tumor volume ≧3000 mm^3.

[1] = 30 mg/kg IV 1/wk×3, listed as free docetaxel

CC(=O)O[C@@]12CO[C@@H]1C[C@H](O)[C@@]1(C)C(=O)[C@H](O)C3=C(C)[C@@H](OC(=O)[C@H](O)[C@@H](NC(=O)OC(C)(C)C)c4ccccc4)C[C@@](O)([C@@H](OC(=O)c4ccccc4)[C@H]21)C3(C)C [Free docetaxel, docetaxel]
Tumor growth suppression (murine melanoma tumor): not sufficient to suppress tumor growth | Day mean tumor volume endpoint (≧3000 mm^3) reached (B16.F10 tumor; 15 mg/kg IV 1/wk×3): 29 days | Day of 0% survival (B16.F10 tumor; 15 mg/kg IV 1/wk×3): 43 days | Day of 50% survival (B16.F10 tumor; 15 mg/kg IV 1/wk×3): 29 days | Increase in TGD (B16.F10 tumor; 15 mg/kg IV 1/wk×3): 45% | Maximum body weight loss (B16.F10 tumor; 15 mg/kg IV 1/wk×3): 2% | Tumor growth delay (TGD) (B16.F10 tumor; 15 mg/kg IV 1/wk×3): 9 days | Tumor growth inhibition (% TGI) (B16.F10 tumor; 15 mg/kg IV 1/wk×3): 75% | Tumor growth inhibition (% TGI) (B16.F10 tumor; 15 mg/kg IV 1/wk×3, listed as free docetaxel): 75% | Maximum body weight loss (B16.F10 tumor; 30 mg/kg IV 1/wk×3): 12% and 14% | Tumor growth delay (TGD) (B16.F10 tumor; 30 mg/kg IV 1/wk×3): 23 days and 18 days | Tumor growth inhibition (% TGI) (B16.F10 tumor; 30 mg/kg IV 1/wk×3): 92% and 81% | Day mean tumor volume endpoint (≧3000 mm^3) reached (B16.F10 tumor; [1]): 43 days and 38 days | Day of 0% survival (B16.F10 tumor; [1]): 45 days and 43 days | Day of 50% survival (B16.F10 tumor; [1]): 40 days and 36 days | Increase in TGD (B16.F10 tumor; [1]): 115% and 90% | Tumor growth delay (TGD) (B16.F10 tumor; [1]): 23 days and 18 days | Tumor growth inhibition (% TGI) (B16.F10 tumor; [1]): 92% and 81%
